The test system of this test is KDM5A and KDM5B. The experiment in a line: In vitro cell-based assay: tri-methyl H3K4 immuno-blotting in ZR-75-1 breast cancer cells. Particulars: 72 hr, read-out: Cellular IC50. How it is done: This quantitative immuno-blotting assay measures the amount tri-methylated histone H3 at amino acid Lysine number 4, a specific substrate […] of the direct enzymatic activity of the histone demethylases KDM5A and KDM5B from extracts of the ZR-75-1 breast cancer cell line.
This assay is a fluorometric immunoassay for the quantification of tri-methyl H3K4 extracted from cells treated with test compound and is used as a measure of the cellular inhibition of KDM5A/B.
Extracts were prepared containing all of the cellular histone material using detergent based lysis and sonication methods. These lysates were subsequently normalized for total protein content using a colorimetric bicinchonic acid assay (MicroBCA Pierce/Thermo Scientific). Normalized cell extracts were then subjected to typical immuno-blotting procedures using NuPage reagents (Life Technologies). […] The amount of tri-methylated lysine 4 of histone H3 was detected using an antibody specific to the tri-methylated state (Cell Signaling Technologies) and quantified on an infrared imager using a densitometry software package (Odyssey CLx, Image Studio, Li-Cor). This background subtracted densitometry value was reported as a ration of the GAPDH amount for that sample and then calculated as a percent of the DMSO treated sample.

Our source for the IC50 values is US10040779B2, “Histone demethylase inhibitors” (priority 2012, dated 2018).

For `O=C(O)c1ccncc1Nc1cn(C2CCOC2)c2ccc(F)cc12` (stereo not shown) [Example 68, 3-{[5-fluoro-1-(tetrahydrofuran-3-yl)-1H-indol-3-yl]amino}pyridine-4-carboxylic acid], the IC50 lay within 1 to 10 µM.
